The source of these data is patent publication US11053242B2, “[9,10-dimethoxy-3-(2-methylpropyl)-1H,2H,3H,4H,6H,7H,11BH-pyrido-[2,1-a]isoquinolin-2-yl]methanol and compounds, compositions and methods relating thereto” (Neurocrine Biosciences, Inc., priority 2015, dated 2021).

A value given as a limit tells only on which side of the number the result lay.

In this test the target is VMAT2 (human platelet homogenate) (Homo sapiens (Human), UniProt Q05940). Briefly: Human VMAT2 Ki, slightly modified competition binding procedure (Table 11).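 Further: competition binding with 90 min incubation at 25 °C, after which filter-retained radioligand was measured by scintillation counting.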 To be noted: 10 nM 3H-dihydrotetrabenazine.
VMAT2 (human platelet homogenate), sequence (Q05940 whole entry): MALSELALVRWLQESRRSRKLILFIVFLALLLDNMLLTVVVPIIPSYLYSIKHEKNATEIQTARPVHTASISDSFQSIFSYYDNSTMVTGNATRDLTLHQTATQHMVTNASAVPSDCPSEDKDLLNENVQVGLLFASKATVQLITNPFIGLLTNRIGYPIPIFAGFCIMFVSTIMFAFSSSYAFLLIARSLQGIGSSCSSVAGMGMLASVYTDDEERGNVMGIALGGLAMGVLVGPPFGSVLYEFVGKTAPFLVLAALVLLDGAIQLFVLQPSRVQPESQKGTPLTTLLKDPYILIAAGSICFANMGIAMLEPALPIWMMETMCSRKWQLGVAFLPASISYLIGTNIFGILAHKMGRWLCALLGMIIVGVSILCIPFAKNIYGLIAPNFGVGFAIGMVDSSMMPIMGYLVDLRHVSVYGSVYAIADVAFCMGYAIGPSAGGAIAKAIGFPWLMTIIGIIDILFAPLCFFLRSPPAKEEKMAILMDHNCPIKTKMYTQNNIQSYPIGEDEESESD
Procedure: Following incubation at 25° C. for 90 minutes, bound radioligand was collected by rapid filtration onto GF/B glass fiber filters using a Unifilter-96 Harvester (PerkinElmer). Filter plates were pre-treated with 0.1% polyethylenimine and allowed to dry overnight, and following harvesting the filter plates were washed with 800 d VMAT2 binding buffer. Bound radioligand was quantified by scintillation counting using a Topcount NXT (PerkinElmer).
In the case of `COc1cc2c(cc1OC)[C@H]1C[C@@H](COC(=O)C[C@@H]3NC(=O)NC3=O)[C@H](CC(C)C)CN1CC2` [Compound 2-33, [(2R,3S,11bR)-9,10-dimethoxy-3-(2-methylpropyl)-1H,2H,3H,4H,6H,7H,11bH-pyrido[2,1-a]isoquinolin-2-yl]methyl 2-[(4S)-2,5-dioxoimidazolidin-4-yl]acetate], the Ki – broadly, the equilibrium dissociation constant of an inhibitor or competing ligand from its target – lay within 0.01 to 0.5 µM.

Turning to `CCCCCC(=O)OC[C@@H]1C[C@@H]2c3cc(OC)c(OC)cc3CCN2C[C@H]1CC(C)C` [Compound 2-34, [(2R,3S,11bR)-9,10-dimethoxy-3-(2-methylpropyl)-1H,2H,3H,4H,6H,7H,11bH-pyrido[2,1-a]isoquinolin-2-yl]methyl hexanoate], the Ki was under 0.01 µM.

Consider `COc1cc2c(cc1OC)[C@H]1C[C@@H](COC(=O)CS(=O)(=O)O)[C@H](CC(C)C)CN1CC2` [Compound 2-35, 2-{[(2R,3S,11bR)-9,10-dimethoxy-3-(2-methylpropyl)-1H,2H,3H,4H,6H,7H,11bH-pyrido[2,1-a]isoquinolin-2-yl]methoxy}-2-oxoethane-1-sulfonic acid], for which the Ki was over 0.5 µM.

`COc1cc2c(cc1OC)[C@H]1C[C@@H](COC(=O)CCCN(C)C)[C@H](CC(C)C)CN1CC2` [Compound 2-36, [(2R,3S,11bR)-9,10-dimethoxy-3-(2-methylpropyl)-1H,2H,3H,4H,6H,7H,11bH-pyrido[2,1-a]isoquinolin-2-yl]methyl 4-(dimethylamino)butanoate] came in with a Ki of under 0.01 µM.

`COc1cc2c(cc1OC)[C@H]1C[C@@H](COC(=O)C3CCCN(S(C)(=O)=O)C3)[C@H](CC(C)C)CN1CC2` (stereo partly drawn) [Compound 2-37, [(2R,3S,11bR)-9,10-dimethoxy-3-(2-methylpropyl)-1H,2H,3H,4H,6H,7H,11bH-pyrido[2,1-a]isoquinolin-2-yl]methyl 1-methanesulfonylpiperidine-3-carboxylate] showed a Ki of 0.01 to 0.5 µM.

For the compound `COc1cc2c(cc1OC)[C@H]1C[C@@H](COC(=O)C3C(C)(C)C3(C)C)[C@H](CC(C)C)CN1CC2` [Compound 2-38, [(2R,3S,11bR)-9,10-dimethoxy-3-(2-methylpropyl)-1H,2H,3H,4H,6H,7H,11bH-pyrido[2,1-a]isoquinolin-2-yl]methyl 2,2,3,3-tetramethylcyclopropane-1-carboxylate], the inhibition constant Ki was in the range of 0.01 to 0.5 µM.

In turn, `COc1cc2c(cc1OC)[C@H]1C[C@@H](COC(=O)CCn3c(=O)oc4ccccc43)[C@H](CC(C)C)CN1CC2` [Compound 2-39, [(2R,3S,11bR)-9,10-dimethoxy-3-(2-methylpropyl)-1H,2H,3H,4H,6H,7H,11bH-pyrido[2,1-a]isoquinolin-2-yl]methyl 3-(2-oxo-2,3-dihydro-1,3-benzoxazol-3-yl)propanoate] displayed a Ki of under 0.01 µM.

On to `COc1cc2c(cc1OC)[C@H]1C[C@@H](COC(=O)CC(=O)O)[C@H](CC(C)C)CN1CC2` [Compound 3-2, 3-{[(2R,3S,11bR)-9,10-dimethoxy-3-(2-methylpropyl)-1H,2H,3H,4H,6H,7H,11bH-pyrido[2,1-a]isoquinolin-2-yl]methoxy}-3-oxopropanoic acid], for which the inhibitory constant (Ki) was under 0.01 µM.

Turning to `COc1cc2c(cc1OC)[C@H]1C[C@@H](COC(=O)C3CCCCC3C(=O)O)[C@H](CC(C)C)CN1CC2` (stereo partly drawn) [Compound 3-5, 2-({[(2R,3S,11bR)-9,10-dimethoxy-3-(2-methylpropyl)-1H,2H,3H,4H,6H,7H,11bH-pyrido[2,1-a]isoquinolin-2-yl]methoxy}carbonyl)cyclohexane-1-carboxylic acid], the inhibition constant (Ki) was 0.01 to 0.5 µM.

`COc1cc2c(cc1OC)[C@H]1C[C@@H](COC(=O)[C@@H](N)Cc3ccccc3)[C@H](CC(C)C)CN1CC2` [Compound 4-2, [(2R,3S,11bR)-9,10-dimethoxy-3-(2-methylpropyl)-1H,2H,3H,4H,6H,7H,11bH-pyrido[2,1-a]isoquinolin-2-yl]methyl (2S)-2-amino-3-phenylpropanoate] registered an inhibition constant Ki of under 0.01 µM.

In the case of `COc1cc2c(cc1OC)[C@H]1C[C@@H](COC(=O)[C@@H]3COCCN3)[C@H](CC(C)C)CN1CC2` [Compound 4-3, [(2R,3S,11bR)-9,10-dimethoxy-3-(2-methylpropyl)-1H,2H,3H,4H,6H,7H,11bH-pyrido[2,1-a]isoquinolin-2-yl]methyl (3S)-morpholine-3-carboxylate], the Ki is 0.01 to 0.5 µM.

`COc1cc2c(cc1OC)[C@H]1C[C@@H](COC(=O)[C@@H]3CCCC[C@H]3N)[C@H](CC(C)C)CN1CC2` [Compound 4-4, [(2R,3S,11bR)-9,10-dimethoxy-3-(2-methylpropyl)-1H,2H,3H,4H,6H,7H,11bH-pyrido[2,1-a]isoquinolin-2-yl]methyl (1R,2R)-2-aminocyclohexane-1-carboxylate] displayed a Ki of under 0.01 µM.

For the compound `COc1cc2c(cc1OC)[C@H]1C[C@@H](COC(=O)C3NCc4ccccc43)[C@H](CC(C)C)CN1CC2` (stereo partly drawn) [Compound 4-6, [(2R,3S,11bR)-9,10-dimethoxy-3-(2-methylpropyl)-1H,2H,3H,4H,6H,7H,11bH-pyrido[2,1-a]isoquinolin-2-yl]methyl 2,3-dihydro-1H-isoindole-1-carboxylate], the Ki is 0.01 to 0.5 µM.

As for `COc1cc2c(cc1OC)[C@H]1C[C@@H](COC(=O)C3CCCC3N)[C@H](CC(C)C)CN1CC2` (stereo partly drawn) [Compound 4-11, [(2R,3S,11bR)-9,10-dimethoxy-3-(2-methylpropyl)-1H,2H,3H,4H,6H,7H,11bH-pyrido[2,1-a]isoquinolin-2-yl]methyl 2-aminocyclopentane-1-carboxylate], the Ki lay in the range of 0.01 to 0.5 µM.

The compound `COc1cc2c(cc1OC)[C@H]1CC(COC(=O)[C@@H](N)C(C)C)[C@H](CC(C)C)CN1CC2` (stereo partly drawn) [Compound 4-12, [(3S,11bR)-9,10-dimethoxy-3-(2-methylpropyl)-1H,2H,3H,4H,6H,7H,11bH-pyrido[2,1-a]isoquinolin-2-yl]methyl (2S)-2-amino-3-methylbutanoate] came in with an inhibition constant (Ki) of under 0.01 µM.

`COc1cc2c(cc1OC)[C@H]1C[C@@H](COC(=O)CC3(N)CCCCC3)[C@H](CC(C)C)CN1CC2` [Compound 4-14, [(2R,3S,11bR)-9,10-dimethoxy-3-(2-methylpropyl)-1H,2H,3H,4H,6H,7H,11bH-pyrido[2,1-a]isoquinolin-2-yl]methyl 2-(1-aminocyclohexyl)acetate]: the inhibitory constant (Ki) was under 0.01 µM.

As to `COc1cc2c(cc1OC)[C@H]1C[C@@H](COC(=O)CC(N)C(C)C)[C@H](CC(C)C)CN1CC2` (stereo partly drawn) [Compound 4-17, [(2R,3S,11bR)-9,10-dimethoxy-3-(2-methylpropyl)-1H,2H,3H,4H,6H,7H,11bH-pyrido[2,1-a]isoquinolin-2-yl]methyl 3-amino-4-methylpentanoate], the Ki was under 0.01 µM.

For `COc1cc2c(cc1OC)[C@H]1C[C@@H](COC(=O)c3ccc(CN)cc3)[C@H](CC(C)C)CN1CC2` [Compound 4-18, [(2R,3S,11bR)-9,10-dimethoxy-3-(2-methylpropyl)-1H,2H,3H,4H,6H,7H,11bH-pyrido[2,1-a]isoquinolin-2-yl]methyl 4-(aminomethyl)benzoate], the Ki is 0.01 to 0.5 µM.

`COc1cc2c(cc1OC)[C@H]1C[C@@H](COC(=O)C(N)c3ccccc3OC)[C@H](CC(C)C)CN1CC2` (stereo partly drawn) [Compound 4-19, [(2R,3S,11bR)-9,10-dimethoxy-3-(2-methylpropyl)-1H,2H,3H,4H,6H,7H,11bH-pyrido[2,1-a]isoquinolin-2-yl]methyl 2-amino-2-(2-methoxyphenyl)acetate] displayed a Ki of 0.01 to 0.5 µM.
